Data on 3 compounds can be found in PMC12881681 (Molecular Pharmacology, 2025).

Values joined by “and” are separate entries in the source; they are usually repeats but may differ in a detail not shown here. Equal values may be shown once. Read-outs that look alike come from different tables or passages of the source.

Usually Cmax stands for the peak of the concentration-time curve.

Data set [1] relates to AOX1 (rat liver cytosol). The data set is described as follows: Inactivation of carbazeran 4-oxidation by rat liver cytosol. It counts as biochemical. The conditions noted are these: 10 μM (raloxifene 0.02 μM), 30-minute preincubation. The method, then: (§1) Carbazeran 4-oxidation and O^6-benzylguanine 8-oxidation were deployed as AOX1-selective catalytic markers.[27] The assay conditions (amount of cytosolic protein, incubation time, and substrate concentration) for carbazeran 4-oxidation catalyzed by human recombinant AOX1 and human/rat/mouse liver cytosols were optimized previously.[7]^,[25]
(§2) Enzymatic reaction was initiated by adding human liver cytosol (100 μg). After the specified preincubation duration, an aliquot (10 μL) of the preincubation mixture was transferred to 190 μL of a prewarmed (for 3 minutes at 37 °C) secondary incubation mixture (total volume of 200 μL) containing potassium phosphate buffer and carbazeran (15 μM) or O^6-benzylguanine (150 μM), which yielded a 20-fold dilution of the primary incubation mixture. The secondary incubation mixture was incubated for 5 minutes at 37 °C before the enzymatic reaction was terminated with 200 μL of ice-cold acetonitrile containing carbazeran-d4 (2.5 nM final concentration; internal standard for 4-oxo-carbazeran) or tolbutamide (25 nM final concentration; internal standard for 8-oxo-O^6-benzylguanine). Each sample was immediately mixed by vortex, placed on ice, centrifuged at 16,000g for 15 minutes at 4 °C and stored at –30 °C until ultra-high performance liquid chromatography–tandem mass spectrometry (UPLC-MS/MS) analysis. For enzyme inactivation assays involving rat and mouse liver cytosol and recombinant AOX1 assays, the experimental conditions were similar to those of human liver cytosol, except that the amount of cytosolic protein was 200 μg (rat) and 150 μg (mouse), respectively, and the incubation time of the secondary incubation mixture was 60 minutes. For the recombinant AOX1 enzyme assay, the amount of enzyme was 100 μg, the incubation time of the secondary incubation mixture was 15 minutes, and the total volume of the primary and secondary incubation mixtures was reduced to 100 μL.
(§3) An aliquot (10 μL) of the primary incubation mixture was transferred to a secondary incubation mixture containing carbazeran (15 μM) and incubated for (A) 180, (B) 5, or (C, D) 120 minutes.

For data set [2], the target named is T1, human liver cytosolic AOX1 (Homo sapiens, UniProt Q06278).
T1 sequence (Q06278 1-1338): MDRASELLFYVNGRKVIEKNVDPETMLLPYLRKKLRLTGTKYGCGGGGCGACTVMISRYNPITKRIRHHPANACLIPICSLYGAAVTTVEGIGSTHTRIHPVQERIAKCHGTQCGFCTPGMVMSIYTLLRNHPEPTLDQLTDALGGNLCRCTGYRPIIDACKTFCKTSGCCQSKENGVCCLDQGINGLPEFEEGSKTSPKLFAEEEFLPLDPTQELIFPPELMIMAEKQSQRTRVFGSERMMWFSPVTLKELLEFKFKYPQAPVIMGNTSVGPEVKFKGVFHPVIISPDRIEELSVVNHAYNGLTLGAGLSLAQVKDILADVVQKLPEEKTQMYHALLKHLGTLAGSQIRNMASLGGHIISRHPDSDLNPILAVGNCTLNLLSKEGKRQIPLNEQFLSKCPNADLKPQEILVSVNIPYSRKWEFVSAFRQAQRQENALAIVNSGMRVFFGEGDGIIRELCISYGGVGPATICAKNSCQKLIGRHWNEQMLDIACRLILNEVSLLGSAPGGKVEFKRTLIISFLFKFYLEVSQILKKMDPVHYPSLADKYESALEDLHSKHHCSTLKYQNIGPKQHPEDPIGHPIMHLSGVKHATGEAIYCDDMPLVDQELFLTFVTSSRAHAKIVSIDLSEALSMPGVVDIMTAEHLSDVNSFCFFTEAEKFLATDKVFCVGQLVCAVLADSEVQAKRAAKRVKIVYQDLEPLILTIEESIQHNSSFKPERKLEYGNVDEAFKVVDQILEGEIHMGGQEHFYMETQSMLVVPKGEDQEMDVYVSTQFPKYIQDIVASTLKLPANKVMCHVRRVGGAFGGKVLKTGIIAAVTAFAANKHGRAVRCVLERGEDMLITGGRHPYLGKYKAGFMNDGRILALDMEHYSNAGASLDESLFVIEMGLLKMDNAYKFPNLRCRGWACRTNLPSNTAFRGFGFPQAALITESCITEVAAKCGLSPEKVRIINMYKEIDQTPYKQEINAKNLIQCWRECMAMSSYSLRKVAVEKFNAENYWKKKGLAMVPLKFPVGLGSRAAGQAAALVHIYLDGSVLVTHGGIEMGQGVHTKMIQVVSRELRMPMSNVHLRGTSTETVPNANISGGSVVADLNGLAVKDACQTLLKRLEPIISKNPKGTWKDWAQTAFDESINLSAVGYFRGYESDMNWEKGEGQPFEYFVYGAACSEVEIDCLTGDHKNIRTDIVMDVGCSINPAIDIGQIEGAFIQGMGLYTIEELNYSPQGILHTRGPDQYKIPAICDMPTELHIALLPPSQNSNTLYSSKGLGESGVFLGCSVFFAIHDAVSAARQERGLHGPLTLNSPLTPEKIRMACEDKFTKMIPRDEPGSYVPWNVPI
Description: AOX1 inactivation, O^6-benzylguanine 8-oxidation by human liver cytosol. The class given is biochemical. More on the design: Enzymatic reaction was initiated by adding human liver cytosol (100 μg); tissue Corning, Inc. (Gentest brand) 452115; host or cells: human liver cytosol, pool of 150 donors. The settings on record: gefitinib 3, 10, 30 μM.

Data set [3] addresses T1, human liver cytosolic AOX1. Description: Dialysis experiment (reversibility of AOX1 inactivation). It counts as biochemical. Details: Enzymatic reaction was initiated by adding human liver cytosol (100 μg); tissue Corning, Inc. (Gentest brand) 452115; host or cells: human liver cytosol, pool of 150 donors. The conditions noted are these: 1.5 μM; for recovery of carbazeran 4-oxidation activity after dialysis: 4 and 24 hours of dialysis at 4 °C; for residual AOX1 activity: 6-minute preincubation, % of nondialyzed vehicle control. The method, then:
Simultaneously, another aliquot (150 μL) of the primary incubation mixture was transferred to a Slide-A-Lyzer mini dialysis device (0.1 mL) with a molecular weight cutoff of 10,000 (Pierce Chemical Co.) and placed in a beaker filled with 300 mL of ice-cold potassium phosphate buffer (100 mM, pH 7.4). Additionally, potassium phosphate buffer (300 mL) was replaced at 2 and 4 hours after the start of dialysis. Dialysis was performed at 4 °C for 4 and 24 hours with constant gentle stirring. Subsequently, 10 μL of the dialyzed mixture was transferred to the secondary incubation mixture and the residual AOX1 enzyme activity was determined by the carbazeran 4-oxidation assay.

Data set [4] has as its target T2, human recombinant AOX1 (Homo sapiens, UniProt Q06278).
T2 construct: purchased Cypex Ltd CYP150
T2 sequence (Q06278 1-1338): T1 sequence (Q06278 1-1338)
Description: Time-dependent inactivation of carbazeran 4-oxidation by human recombinant AOX1. It counts as biochemical. The settings on record: each 10 μM (raloxifene 0.02 μM), 30-minute preincubation, vs vehicle control without preincubation. The method, then: as §1, §2, §3

Data set [5] is described as follows: Human plasma concentrations after erlotinib dosing (literature).
For data set [6] the following is noted: cancer patients, cited from earlier work; for Cmax: 150 mg/day erlotinib.

On to `C#Cc1cccc(Nc2ncnc3cc(OCCOC)c(OCCO)cc23)c1` [O-Desmethylerlotinib, O-desmethylerlotinib], for which the entries for the “decrease in carbazeran 4-oxidation” value in data set [1] and in data set [4] were 92%–97% and 91%, respectively. Moreover, the “effect of gefitinib on extent of AOX1 inactivation” value (from here on “effect of gefitinib”) in data set [2] is “attenuated”. Besides, the “recovery of carbazeran 4-oxidation activity after dialysis” value (from here on “recovery”) in data set [3] is given as “not reversed”. Moreover, in data set [5] (in vivo), the “Cmax,u” value lay in the range of 0.0077 to 0.02 µM.
Consider `C#Cc1cccc(Nc2ncnc3cc(OCCOC)c(OCCOC)cc23)c1` [Erlotinib], for which the “effect of gefitinib” value in data set [2] is on record as “attenuated”. In data set [3], the “recovery” value is recorded as “not recovered”. Further, the “residual AOX1 activity” value in data set [3] (24-hour dialysis at 4 °C) is on record as 3.7%; in data set [3] (without dialysis) it was 7.8%. The highest concentration (Cmax) in data set [6] (day 28) was 5.39 µM; in data set [6] (erlotinib in plasma, day 24 to day 28), 4.41 to 5.39 µM. The “Cmax,u” value in data set [5] (Cmax,u = plasma fu × Cmax, plasma fu = 0.07) lay within 0.31 to 0.38 µM.
In the case of `C#Cc1cccc(Nc2ncnc3cc(OCCO)c(OCCO)cc23)c1` [O-Didesmethylerlotinib, O-didesmethylerlotinib], the figures for the “decrease in carbazeran 4-oxidation” value in data set [1] and in data set [4] were 92%–97% and 94%, respectively. For the same compound, in data set [2], the “effect of gefitinib” value was “attenuated”. In addition, the “recovery” value in data set [3] is on record as “not reversed”. Further, the C24h in data set [6] (150 mg/day erlotinib for 1–2 months) is 0.86–4.2 ng/mL and 2.35–11.49 nM. In data set [5] (in vivo), the “Cmax,u” value was 0.0001 to 0.0008 µM.
